One may read the IC50 as the concentration that gives 50% inhibition.

Experiment [1] has as its system IL-17A-induced G-CSF production in human normal keratinocyte (NHK). As to the kind of experiment: NHK assay: IL-17A-induced G-CSF production in normal human keratinocytes. In kind it is cell-based. The note with it: IL-17A 5 ng/mL, 24 h, average if tested more than once. The gist of the method: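 Compound titrations are first mixed with recombinant human IL-17A for 1 h at room temperature. The mixture goes onto adult normal human keratinocytes (final IL-17A 5 ng/mL, 5% FBS, 0.2% DMSO) for 24 h at 37 °C. Secreted G-CSF is then measured by HTRF and IC50 fitted.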

Experiment [2] addresses T1, IL-17A : IL-17RA binding (Homo sapiens, UniProt Q16552, K93Q).
T1 construct: Name: IL-17A-Flag
As to the kind of experiment: IL-17A(FLAG-tagged):IL-17RA(His-tagged) binding disruption Eu-HTRF assay, Protocol 1. To be noted: FLAG-IL-17A 2.5 nM at 2x final concentration; average if tested more than once. An outline of the steps:
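IC50 came from a one-site competition fit of the acceptor/donor (665/620 nm) HTRF ratio. His-tagged IL-17RA, Eu-anti-FLAG and D2-anti-His were added after a 1 h rt compound preincubation with FLAG-tagged IL-17A dimer in PBS/0.01% Triton X-100, followed by 2 h at rt before reading.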

T1 sequence (Q16552 with tags, fused parts or gaps K93Q): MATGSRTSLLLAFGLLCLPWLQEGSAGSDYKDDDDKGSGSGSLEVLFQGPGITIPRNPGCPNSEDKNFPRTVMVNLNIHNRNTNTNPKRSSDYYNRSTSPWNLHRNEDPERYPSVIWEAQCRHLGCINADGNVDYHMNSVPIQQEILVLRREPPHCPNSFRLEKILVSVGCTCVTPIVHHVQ

On to `Cn1nccc1C(=O)N[C@H](c1nc2cc(C(NC(=O)CCC(F)(F)F)C3CCC3)ccc2[nH]1)C1CCC(F)(F)CC1` (single isomer, unassigned) [Example 43, N—((S)-(5-((R*)-Cyclobutyl(4,4,4-trifluorobutanamido)methyl)-1H-benzo[d]imidazol-2-yl)(4,4-difluorocyclohexyl)methyl)-1-methyl-1H-pyrazole-5-carboxamide], for which the IC50 in experiment [1] and in experiment [2] was greater than 100 nM in each case.
As to `Cc1nonc1C(=O)N[C@H](c1nc2cc([C@H](NC(=O)CC(C)C(F)(F)F)C3CC3)ccc2[nH]1)[C@@H]1CCCC(F)(F)C1` (single isomer, unassigned) [Example 258, N—((S)-(5-((R)-Cyclopropyl((R*)-4,4,4-trifluoro-3-methylbutanamido)methyl)-1H-benzo[d]imidazol-2-yl)((R)-3,3-difluorocyclohexyl)methyl)-4-methyl-1,2,5-oxadiazole-3-carboxamide], the IC50 in experiment [1] (Homo sapiens, Keratinocyte) was 50 to 100 nM; in experiment [2], 50 to 100 nM.
On to `C[C@@H](NC(=O)CCC(F)(F)F)c1ccc2nc([C@@H](NC(=O)c3cnn(CC4CC4)c3)C3CCC(F)(F)CC3)[nH]c2c1` [Example 61, 1-(Cyclopropylmethyl)-N—((S)-(4,4-difluorocyclohexyl)(6-((R)-1-(4,4,4-trifluorobutanamido)ethyl)-1H-benzo[d]imidazol-2-yl)methyl)-1H-pyrazole-4-carboxamide], for which the IC50 is greater than 100 nM in experiment [1] (Homo sapiens, Keratinocyte) and greater than 100 nM in experiment [2].
For the compound `C[C@@H](NC(=O)CC(C(F)(F)F)C(F)(F)F)c1ccc2[nH]c([C@@H](NC(=O)c3ccnn3CC(F)(F)F)C3CCC(F)(F)CC3)nc2c1` [Example 129, N—((S)-(4,4-Difluorocyclohexyl)(5-((R)-1-(4,4,4-trifluoro-3-(trifluoromethyl)butanamido)ethyl)-1H-benzo[d]imidazol-2-yl)methyl)-1-(2,2,2-trifluoroethyl)-1H-pyrazole-5-carboxamide], the IC50 in experiment [1] (Homo sapiens, Keratinocyte) is 50 to 100 nM; in experiment [2] it was greater than 100 nM.
On to `Cc1nonc1C(=O)N[C@@H](CC(C)(C)C(F)(F)F)c1nc2ccc([C@H](NC(=O)CC3CC(F)(F)C3)C3CC3)cc2[nH]1` [Example 186, N—((S)-1-(6-((R)-Cyclopropyl(2-(3,3-difluorocyclobutyl)acetamido)methyl)-1H-benzo[d]imidazol-2-yl)-4,4,4-trifluoro-3,3-dimethylbutyl)-4-methyl-1,2,5-oxadiazole-3-carboxamide], for which the IC50 in experiment [1] (Homo sapiens, Keratinocyte) was 50 to 100 nM; in experiment [2] it was less than 50 nM.
Taken in the same sequence, the figures for `C[C@@H](NC(=O)CC1CC(F)(F)C1)c1ccc2[nH]c([C@@H](NC(=O)c3ccnn3C)C3CCC(F)(F)CC3)nc2c1` [Example 119, N—((S)-(5-((R)-1-(2-(3,3-Difluorocyclobutyl)acetamido)ethyl)-1H-benzo[d]imidazol-2-yl)(4,4-difluorocyclohexyl)methyl)-1-methyl-1H-pyrazole-5-carboxamide] were less than 50 nM and greater than 100 nM.
Turning to `C[C@@H](NC(=O)CCC(F)(F)F)c1ccc2[nH]c([C@@H](NC(=O)c3cnn(CCOC(F)F)n3)C3CCC(F)(F)CC3)nc2c1` [Example 33, N—[(S)-(4,4-Difluorocyclohexyl)-[6-[(1R)-1-(4,4,4-trifluorobutanoylamino)ethyl]-1H-benzimidazol-2-yl]methyl]-2-[2-(difluoromethoxy)ethyl]triazole-4-carboxamide], the IC50 in experiment [1] (Homo sapiens, Keratinocyte) is greater than 100 nM; in experiment [2], greater than 100 nM.
On to `C[C@H](NC(=O)CCC(F)(F)F)c1ccc2[nH]c([C@@H](NC(=O)c3ccnn3CCC(F)(F)F)C3CCC(F)(F)CC3)nc2c1` [Example 124, N—((S)-(4,4-Difluorocyclohexyl)(5-((S)-1-(4,4,4-trifluorobutanamido)ethyl)-1H-benzo[d]imidazol-2-yl)methyl)-1-(3,3,3-trifluoropropyl)-1H-pyrazole-5-carboxamide], for which the IC50 in experiment [1] (Homo sapiens, Keratinocyte) was greater than 100 nM; in experiment [2] it was greater than 100 nM.
As to `C[C@@H](NC(=O)CCC(F)(F)F)c1ccc2[nH]c([C@@H](NC(=O)c3conc3CCC(F)(F)F)C3CCC(F)(F)CC3)nc2c1` [Example 214, N—((S)-(4,4-Difluorocyclohexyl)(5-((R)-1-(4,4,4-trifluorobutanamido)ethyl)-1H-benzo[d]imidazol-2-yl)methyl)-3-(3,3,3-trifluoropropyl)isoxazole-4-carboxamide], the IC50 is less than 50 nM in experiment [1] (Homo sapiens, Keratinocyte) and 50 to 100 nM in experiment [2].
As to `C[C@@H](NC(=O)CCC(F)(F)F)c1ccc2[nH]c([C@@H](NC(=O)c3c(C#N)cnn3CC3CCC3)C3CCC(F)(F)CC3)nc2c1` [Example 90, 4-Cyano-1-(cyclobutylmethyl)-N—((S)-(4,4-difluorocyclohexyl)(5-((R)-1-(4,4,4-trifluorobutanamido)ethyl)-1H-benzo[d]imidazol-2-yl)methyl)-1H-pyrazole-5-carboxamide], the IC50 is greater than 100 nM in experiment [1] (Homo sapiens, Keratinocyte) and greater than 100 nM in experiment [2].
`C[C@@H](NC(=O)CCC(F)(F)F)c1ccc2nc([C@@H](NC(=O)c3cnn(CC4CC(F)(F)C4)n3)C3CCC(F)(F)CC3)[nH]c2c1` [Example 64, 2-((3,3-Difluorocyclobutyl)methyl)-N—((S)-(4,4-difluorocyclohexyl)(6-((R)-1-(4,4,4-trifluorobutanamido)ethyl)-1H-benzo[d]imidazol-2-yl)methyl)-2H-1,2,3-triazole-4-carboxamide]: the IC50 in experiment [1] (Homo sapiens, Keratinocyte) is greater than 100 nM; in experiment [2], greater than 100 nM.
Regarding `COCCn1ncc(C(=O)N[C@H](c2nc3cc([C@@H](C)NC(=O)CCC(F)(F)F)ccc3[nH]2)C2CCC(F)(F)CC2)n1` [Example 14, N—[(S)-(4,4-Difluorocyclohexyl)-[6-[(1R)-1-(4,4,4-trifluorobutanoylamino)ethyl]-1H-benzimidazol-2-yl]methyl]-2-(2-methoxyethyl)triazole-4-carboxamide], the IC50 in experiment [1] (Homo sapiens, Keratinocyte) was greater than 100 nM; in experiment [2], greater than 100 nM.
As to `Cc1nonc1C(=O)N[C@H](c1nc2ccc([C@H](NC(=O)CC3CC(F)(F)C3)C3CC3)cc2[nH]1)[C@H]1C[C@H](CC(F)(F)F)C1` (single isomer, unassigned) [Example 245], the IC50 in experiment [1] (Homo sapiens, Keratinocyte) was greater than 100 nM; in experiment [2], greater than 100 nM.
On to `C[C@@H](NC(=O)CCC(F)(F)F)c1ccc2[nH]c([C@@H](NC(=O)c3ccnn3CC(F)(F)F)C3CCC(F)(F)CC3)nc2c1` [Example 128, N—((S)-(4,4-Difluorocyclohexyl)(5-((R)-1-(4,4,4-trifluorobutanamido)ethyl)-1H-benzo[d]imidazol-2-yl)methyl)-1-(2,2,2-trifluoroethyl)-1H-pyrazole-5-carboxamide], for which the IC50 in experiment [1] (Homo sapiens, Keratinocyte) is greater than 100 nM; in experiment [2] it was greater than 100 nM.
As to `C[C@@H](NC(=O)CCC(F)(F)F)c1ccc2[nH]c([C@@H](NC(=O)c3ccc(CCC(F)(F)F)s3)C3CCC(F)(F)CC3)nc2c1` [Example 221, N—((S)-(4,4-Difluorocyclohexyl)(5-((R)-1-(4,4,4-trifluorobutanamido)ethyl)-1H-benzo[d]imidazol-2-yl)methyl)-5-(3,3,3-trifluoropropyl)thiophene-2-carboxamide], the IC50 in experiment [1] (Homo sapiens, Keratinocyte) is greater than 100 nM; in experiment [2], greater than 100 nM.
Regarding `CC(C)CCn1ncc(C(=O)N[C@H](c2nc3cc([C@@H](C)NC(=O)CCC(F)(F)F)ccc3[nH]2)C2CCC(F)(F)CC2)c1C(C)C` [Example 11, N—[(S)-(4,4-Difluorocyclohexyl)-[6-[(1R)-1-(4,4,4-trifluorobutanoylamino)ethyl]-1H-benzimidazol-2-yl]methyl]-1-isopentyl-5-isopropyl-pyrazole-4-carboxamide], the IC50 in experiment [1] (Homo sapiens, Keratinocyte) is greater than 100 nM; in experiment [2] it was greater than 100 nM.
As to `C[C@@H](NC(=O)CCC(F)(F)F)c1ccc2[nH]c([C@@H](NC(=O)c3csc(CCC(F)(F)F)n3)C3CCC(F)(F)CC3)nc2c1` [Example 224, N—((S)-(4,4-Difluorocyclohexyl)(5-((R)-1-(4,4,4-trifluorobutanamido)ethyl)-1H-benzo[d]imidazol-2-yl)methyl)-2-(3,3,3-trifluoropropyl)thiazole-4-carboxamide], the IC50 in experiment [1] (Homo sapiens, Keratinocyte) was greater than 100 nM; in experiment [2], greater than 100 nM.
With `C[C@@H](NC(=O)CCC(F)(F)F)c1ccc2[nH]c([C@@H](NC(=O)c3cnn(CC4CCC4(F)F)n3)C3CCC(F)(F)CC3)nc2c1` (stereo partly drawn) [Example 87, 2-((2,2-Difluorocyclobutyl)methyl)-N—((S)-(4,4-difluorocyclohexyl)(5-((R)-1-(4,4,4-trifluorobutanamido)ethyl)-1H-benzo[d]imidazol-2-yl)methyl)-2H-1,2,3-triazole-4-carboxamide], the IC50 was greater than 100 nM in experiment [1] (Homo sapiens, Keratinocyte) and greater than 100 nM in experiment [2].
Regarding `COCCn1nncc1C(=O)N[C@H](c1nc2cc([C@@H](C)NC(=O)CCC(F)(F)F)ccc2[nH]1)C1CCC(F)(F)CC1` [Example 15, N—[(S)-(4,4-Difluorocyclohexyl)-[6-[(1R)-1-(4,4,4-trifluorobutanoylamino)ethyl]-1H-benzimidazol-2-yl]methyl]-3-(2-methoxyethyl)triazole-4-carboxamide], the IC50 in experiment [1] (Homo sapiens, Keratinocyte) was greater than 100 nM; in experiment [2], greater than 100 nM.
Take `C[C@@H](NC(=O)CCC(F)(F)F)c1ccc2[nH]c(C(CC(C)(C)C(F)(F)F)NC(=O)c3cnn(CC4CC4)n3)nc2c1` (single isomer, unassigned) [Example 191, 2-(Cyclopropylmethyl)-N—((R*)-4,4,4-trifluoro-3,3-dimethyl-1-(5-((R)-1-(4,4,4-trifluorobutanamido)ethyl)-1H-benzo[d]imidazol-2-yl)butyl)-2H-1,2,3-triazole-4-carboxamide]: the IC50 was greater than 100 nM in experiment [1] (Homo sapiens, Keratinocyte) and greater than 100 nM in experiment [2].

These data come from patent US20240376085A1 (Janssen Pharmaceutica NV, priority 2021, published 2024).
